What was measured:
delta receptors = delta receptors (Homo sapiens, UniProt P41143); conditions: in vitro; cited from earlier work
μ opioid receptor = μ opioid receptor (Homo sapiens, UniProt P35372); conditions: cited from earlier work
[1] = cited from earlier work
human osteoblasts = conditions: in vitro treatment; cited from earlier work
[2] = system: sarcoma-induced bone loss; assay: Murine bone cancer model (sarcoma cells injected into femur), radiographic bone loss, fracture and pain under sustained morphine infusion; format: in vivo, mice
sarcoma cells = assay: Tumor growth in vitro; format: cell-based
Text: (§1) The peripheral opioid antagonists according to the invention provide a conjunctive therapy for managing bone metabolism while opiates are in use. Specific data describing the metabolic effects of opiates on bone metabolism are provided in the examples.

osteoclasts = assay: Osteoclast count by TRAP staining in metaphysis of distal femur; format: in vivo, mice
Text: Previous studies have shown that osteolytic cancers, such as the sarcoma cell line used in these studies, upregulate osteoclasts within the bone. To determine whether the enhanced morphine-induced bone loss is mediated through further upregulation of osteoclasts, osteoclasts were stained and counted within the metaphysis of the distal head of the femur using tartrate resistant acid phosphatase (TRAP) staining.

IL-1β = IL-1β level within the bone after sustained morphine infusion; format: in vivo, mice; conditions: sarcoma-induced
Text: as §1

[3] = drug-dependent mice; cited from earlier work
[4] = sustained morphine administration

Sequence of μ opioid receptor (P35372 whole entry, species assumed): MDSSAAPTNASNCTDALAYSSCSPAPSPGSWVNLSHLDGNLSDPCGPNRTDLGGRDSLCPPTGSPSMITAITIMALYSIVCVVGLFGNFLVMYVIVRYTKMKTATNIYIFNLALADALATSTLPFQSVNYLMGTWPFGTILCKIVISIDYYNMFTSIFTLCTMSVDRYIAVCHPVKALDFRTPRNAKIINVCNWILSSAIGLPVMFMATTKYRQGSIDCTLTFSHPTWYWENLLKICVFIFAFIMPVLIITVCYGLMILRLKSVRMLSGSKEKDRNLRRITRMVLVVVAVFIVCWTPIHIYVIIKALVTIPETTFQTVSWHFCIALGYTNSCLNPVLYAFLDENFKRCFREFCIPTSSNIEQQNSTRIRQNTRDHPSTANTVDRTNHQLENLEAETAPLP
Sequence of delta receptors (P41143 whole entry): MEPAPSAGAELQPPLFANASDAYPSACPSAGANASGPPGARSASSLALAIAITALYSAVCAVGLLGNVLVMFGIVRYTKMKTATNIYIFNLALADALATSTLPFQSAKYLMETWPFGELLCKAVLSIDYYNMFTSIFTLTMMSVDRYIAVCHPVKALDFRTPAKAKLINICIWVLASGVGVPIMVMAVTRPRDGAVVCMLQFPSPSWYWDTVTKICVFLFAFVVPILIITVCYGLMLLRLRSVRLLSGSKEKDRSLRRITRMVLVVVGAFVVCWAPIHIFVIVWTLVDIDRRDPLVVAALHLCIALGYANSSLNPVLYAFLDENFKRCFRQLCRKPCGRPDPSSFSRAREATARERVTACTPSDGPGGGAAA

Molecule: O=C1C(=Cc2ccccc2)C[C@@]2(O)[C@H]3Cc4ccc(O)c5c4[C@@]2(CCN3CC2CC2)[C@H]1O5 [BNTX, 7-benzylidenenaltrexone]
- type of activity at the delta receptor (delta receptors): inverse agonist
- type of activity at the mu receptor (μ opioid receptor): inverse agonist

Molecule: O=C(O)Cc1ccccc1Nc1c(Cl)cccc1Cl [Diclofenac]
- therapeutic concentration in serum [1]: approximately 1.5 micrograms/ml
- concentration giving a significant decrease of cell proliferation (human osteoblasts): 6 micrograms/ml

Molecule: COc1cccc(C2(O)CCCCC2CN(C)C)c1 (centres unmarked) [Tramadol]
- therapeutic concentration in serum [1]: 0.25 micrograms/ml
- concentration giving a significant decrease of cell proliferation (human osteoblasts): greater than 20 micrograms/ml

Molecule: CN1CC[C@]23c4c5ccc(O)c4O[C@H]2[C@@H](O)C=C[C@H]3[C@H]1C5 [morphine]
- sarcoma-induced bone loss (radiograph rating) vs saline infusion ([2]; 6 days after sarcoma injection): no difference between morphine or saline treated mice
- incidence of sarcoma-induced fracture vs saline infusion ([2]; 10 days and 12 days after sarcoma injection into the femur): doubled
- sarcoma-induced bone loss (radiograph rating) vs saline infusion ([2]; 12 days after femoral sarcoma injection, sustained morphine infusion): increased sarcoma-induced bone loss
- tumor burden in vivo ([2]; in vivo): did not alter
- sarcoma-induced pain [2, 4]: enhances sarcoma-induced pain
- time to fracture [2, 4]: accelerated time to fracture
- tumor growth in vitro (sarcoma cells): did not alter
- osteoclast TRAP staining vs saline (osteoclasts; control animals (no sarcoma)): no difference in osteoclast staining
- osteoclast TRAP staining vs saline infusion (osteoclasts; sarcoma treated animals, sustained morphine infusion): increased sarcoma-induced upregulation of osteoclasts
- IL-1β within the bone (IL-1β): upregulated

Molecule: CTAP
- withdrawal elicited, compared with naloxone [3]: significantly less withdrawal than naloxone
